Values joined by “and” are separate entries in the source; they are usually repeats but may differ in a detail not shown here. Equal entries are not always repeated. Where two headings read alike, the source gives them in different places.
Columns and labels:
HEK293T cells = experiment: Drug sensitivity assay (CellTiter-Glo viability) with or without MLN4924 pretreatment; format: cell-based, human; conditions: for EC50: Homo sapiens, HEK-293T; for Toxicity rescue: MLN4924-mediated cytotoxicity rescue, 10 µM used where n.d.
Procedure, shortened: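 Viability of HEK293T–Cas9 cells was compared after 3-day drug treatment with or without 100 nM MLN4924 pretreatment (2 h, versus DMSO). Values are CellTiter-Glo signals relative to DMSO controls.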

CDK12–cyclin K and DDB1 = target: T1, CDK12–cyclin K and DDB1 (Homo sapiens, UniProt Q16531+Q9NYV4, K965R); experiment: TR-FRET ternary complex formation assay (compound titration); format: binding; conditions: for TR-FRET signal at compound concentration: replicate titrations
T1 construct: His6–CDK12 (a.a. 713–1,052); full-length or beta-propeller B domain deletion (ΔBPB: a.a. 396–705 deleted) constructs of His6–DDB1ΔBPB, StrepII–Avi–DDB1, or His6–Spy–DDB1; made in house; host or cells: Trichoplusia ni High Five insect cells (baculovirus)
Procedure, shortened: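 Delayed (70 μs) time-resolved read; FRET computed as 520 nm over 490 nm emission.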

[1] = test system: cyclin K–eGFP degradation reporter; experiment: Cyclin K reporter stability analysis (dual-color cyclin K–eGFP reporter); format: cell-based, human
Procedure, shortened: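 Values reflect cyclin K–eGFP levels after a 5 h exposure, expressed as the green-to-red fluorescence ratio and scaled to three vehicle-treated controls. Measurements came from HEK293T–Cas9 reporter cells by flow cytometry.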

[2] = Supplementary Table 2, HEK293T viability, 72 h, compound alone, read-out: Cellular assays EC50
[3] = compound concentration 79.2001 nM
[4] = compound concentration 158.4 nM
[5] = compound concentration 309.6 nM
[6] = compound concentration 626.401 nM
[7] = compound concentration 1252.8 nM
[8] = compound concentration 9936.01 nM
[9] = compound concentration 20016 nM
[10] = Supplementary Table 2, HEK293T cycK-eGFP reporter, 5 h, read-out: Cellular assays DC50
[11] = sheet MOESM7, read-out: log TR-FRET EC50 (converted)

T1 sequence (Q9NYV4 713-1052 K965R): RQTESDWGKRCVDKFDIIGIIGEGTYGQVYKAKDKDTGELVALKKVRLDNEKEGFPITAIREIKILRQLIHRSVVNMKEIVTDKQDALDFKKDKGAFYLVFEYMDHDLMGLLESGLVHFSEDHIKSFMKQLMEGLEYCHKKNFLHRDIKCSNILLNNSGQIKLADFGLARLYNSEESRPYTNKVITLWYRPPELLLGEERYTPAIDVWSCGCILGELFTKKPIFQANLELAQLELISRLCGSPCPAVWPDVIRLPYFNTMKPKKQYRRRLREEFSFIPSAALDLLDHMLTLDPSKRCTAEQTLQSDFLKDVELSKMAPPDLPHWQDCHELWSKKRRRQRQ
T1 sequence (O75909 1-267 partner): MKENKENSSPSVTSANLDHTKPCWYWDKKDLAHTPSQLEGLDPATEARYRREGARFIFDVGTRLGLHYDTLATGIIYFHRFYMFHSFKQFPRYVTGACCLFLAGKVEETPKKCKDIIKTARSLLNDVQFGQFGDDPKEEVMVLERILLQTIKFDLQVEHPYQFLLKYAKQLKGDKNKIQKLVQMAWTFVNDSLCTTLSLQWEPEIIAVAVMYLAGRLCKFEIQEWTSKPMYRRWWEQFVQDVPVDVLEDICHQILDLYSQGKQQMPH
T1 sequence (Q16531 whole entry): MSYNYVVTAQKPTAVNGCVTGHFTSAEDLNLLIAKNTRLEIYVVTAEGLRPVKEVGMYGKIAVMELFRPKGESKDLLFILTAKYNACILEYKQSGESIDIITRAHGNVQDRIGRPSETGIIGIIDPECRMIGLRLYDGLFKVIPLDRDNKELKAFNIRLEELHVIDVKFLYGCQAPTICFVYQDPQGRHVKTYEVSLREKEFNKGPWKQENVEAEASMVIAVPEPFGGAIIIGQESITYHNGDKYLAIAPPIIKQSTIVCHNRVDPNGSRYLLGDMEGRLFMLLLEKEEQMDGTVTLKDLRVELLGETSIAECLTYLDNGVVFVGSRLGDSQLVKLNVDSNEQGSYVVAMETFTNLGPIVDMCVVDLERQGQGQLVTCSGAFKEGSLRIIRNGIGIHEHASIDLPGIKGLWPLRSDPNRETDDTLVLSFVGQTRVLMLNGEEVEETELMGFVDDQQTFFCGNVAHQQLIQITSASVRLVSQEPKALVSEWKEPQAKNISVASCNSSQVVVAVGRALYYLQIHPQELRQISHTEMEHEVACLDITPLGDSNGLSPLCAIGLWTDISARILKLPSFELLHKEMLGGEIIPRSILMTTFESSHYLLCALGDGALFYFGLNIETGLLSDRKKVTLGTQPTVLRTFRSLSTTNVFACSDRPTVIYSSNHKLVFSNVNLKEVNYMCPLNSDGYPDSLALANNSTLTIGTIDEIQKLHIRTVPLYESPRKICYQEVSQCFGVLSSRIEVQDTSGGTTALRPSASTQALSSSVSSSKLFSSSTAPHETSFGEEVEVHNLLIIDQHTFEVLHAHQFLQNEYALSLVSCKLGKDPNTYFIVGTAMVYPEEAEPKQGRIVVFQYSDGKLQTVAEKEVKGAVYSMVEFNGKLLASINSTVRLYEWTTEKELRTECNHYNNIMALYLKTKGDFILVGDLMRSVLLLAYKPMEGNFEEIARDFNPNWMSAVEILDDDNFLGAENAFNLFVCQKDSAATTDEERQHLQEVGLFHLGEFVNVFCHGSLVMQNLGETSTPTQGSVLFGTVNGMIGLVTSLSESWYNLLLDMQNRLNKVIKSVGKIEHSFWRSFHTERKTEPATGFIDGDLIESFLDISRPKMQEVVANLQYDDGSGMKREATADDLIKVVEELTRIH

TR-FRET signal, individual replicate (CDK12–cyclin K and DDB1; compound concentration 4.68 nM) | TR-FRET signal, individual replicate (CDK12–cyclin K and DDB1; compound concentration 21.6 nM) | TR-FRET signal, individual replicate (CDK12–cyclin K and DDB1; compound concentration 36 nM) | TR-FRET signal, individual replicate (CDK12–cyclin K and DDB1; [3]) | TR-FRET signal, individual replicate (CDK12–cyclin K and DDB1; [4]) | TR-FRET signal, individual replicate (CDK12–cyclin K and DDB1; [5]) | TR-FRET signal, individual replicate (CDK12–cyclin K and DDB1; [6]) | TR-FRET signal, individual replicate (CDK12–cyclin K and DDB1; [7]) | TR-FRET signal, individual replicate (CDK12–cyclin K and DDB1; compound concentration 2448 nM) | TR-FRET signal, individual replicate (CDK12–cyclin K and DDB1; [8]) | TR-FRET signal, individual replicate (CDK12–cyclin K and DDB1; [9]) | DC50 [1, 10] [µM] | EC50 (CDK12–cyclin K and DDB1; [11]) [µM] | SMILES | EC50 (HEK293T cells; [2]) [µM] | Toxicity rescue (HEK293T cells; Supplementary Table 2) [%] | also measured
0.1996 and 0.2467 | 0.2088 and 0.2442 | 0.2151 and 0.2401 | 0.2234 and 0.2572 | 0.237 and 0.2667 | 0.2597 and 0.2826 | 0.3077 and 0.3432 | 0.3992 and 0.4242 | 0.5328 and 0.5897 | 1.042 and 1.049 | 1.225 and 1.271 | > 10 | 5.74 | CC[C@H](CO)Nc1nc(NCCC2CCCCCCC2)c2ncn(C(C)C)c2n1 [DS38] | > 10 | 0 | EC50 (CDK12–cyclin K and DDB1; Supplementary Table 2, read-out: TR-FRET EC50 TR-FRET): 5.74 µM
 |  |  |  |  |  |  |  |  |  |  | > 10 | 1.3 | CC[C@H](CO)Nc1nc(NCCOCc2ccccc2)c2ncn(C(C)C)c2n1 [DS40] | > 10 | 0 | TR-FRET signal (CDK12–cyclin K and DDB1; compound concentration 4.68 nM): 0.2076 and 0.2321; TR-FRET signal (CDK12–cyclin K and DDB1; compound concentration 21.6 nM): 0.2226 and 0.2483; TR-FRET signal (CDK12–cyclin K and DDB1; compound concentration 36 nM): 0.2561 and 0.2746; TR-FRET signal (CDK12–cyclin K and DDB1; [3]): 0.3133 and 0.3047; TR-FRET signal (CDK12–cyclin K and DDB1; [4]): 0.4014 and 0.4131; TR-FRET signal (CDK12–cyclin K and DDB1; [5]): 0.5676 and 0.5799; TR-FRET signal (CDK12–cyclin K and DDB1; [6]): 0.7977 and 0.8028; TR-FRET signal (CDK12–cyclin K and DDB1; [7]): 1.088 and 1.118; TR-FRET signal (CDK12–cyclin K and DDB1; compound concentration 2448 nM): 1.44 and 1.508; TR-FRET signal (CDK12–cyclin K and DDB1; [8]): 1.852 and 2.056; TR-FRET signal (CDK12–cyclin K and DDB1; [9]): 1.876 and 2.063
 |  |  |  |  |  |  |  |  |  |  |  | 0.0437 | CC[C@H](CO)Nc1nc(NCc2ccn(-c3cccc(Cl)c3)n2)c2ncn(C(C)C)c2n1 [DS43] | 1.26 | 697 | EC50 (HEK293T cells; Supplementary Fig. 5, HEK293T, CellTiter Glo, 72h, pre-treatment with 100 nM MLN4924, read-out: Viability EC50, with MLN4924): 15.5 µM; % MLN4924 rescue (HEK293T cells; PCA input): 649%; TR-FRET signal at compound concentration (CDK12–cyclin K and DDB1; compound concentration 0.468 nM): 0.2854 and 0.3016; TR-FRET signal at compound concentration (CDK12–cyclin K and DDB1; compound concentration 2.16 nM): 0.3338 and 0.3545; TR-FRET signal at compound concentration (CDK12–cyclin K and DDB1; compound concentration 3.6 nM): 0.4308 and 0.466; TR-FRET signal at compound concentration (CDK12–cyclin K and DDB1; compound concentration 7.92001 nM): 0.6201 and 0.666; TR-FRET signal at compound concentration (CDK12–cyclin K and DDB1; compound concentration 15.84 nM): 0.9968 and 1.0413; TR-FRET signal at compound concentration (CDK12–cyclin K and DDB1; compound concentration 30.96 nM): 1.655 and 1.7184; TR-FRET signal at compound concentration (CDK12–cyclin K and DDB1; compound concentration 62.6401 nM): 2.415 and 2.607; TR-FRET signal at compound concentration (CDK12–cyclin K and DDB1; compound concentration 125.28 nM): 3.042 and 3.307; TR-FRET signal at compound concentration (CDK12–cyclin K and DDB1; compound concentration 244.8 nM): 3.43 and 3.794; TR-FRET signal at compound concentration (CDK12–cyclin K and DDB1; compound concentration 993.601 nM): 3.717 and 4.015; TR-FRET signal at compound concentration (CDK12–cyclin K and DDB1; compound concentration 2001.6 nM): 3.6778 and 3.923; EC50 (CDK12–cyclin K and DDB1; in vitro complex formation, 50 nM CDK12–cyclin K, 100 nM DDB1, text and figures, read-out: TR-FRET EC50): 0.044 ± 0.002 µM; EC50 (CDK12–cyclin K and DDB1; source data sheet correlations, read-out: TR-FRET EC50): 0.0437 µM; DC50 ([1]; source data sheet correlations, read-out: DC50): 0.075 µM

The next lines start with the compound.

SMILES | TR-FRET signal, individual replicate (CDK12–cyclin K and DDB1; compound concentration 4.68 nM) | TR-FRET signal, individual replicate (CDK12–cyclin K and DDB1; compound concentration 21.6 nM) | TR-FRET signal, individual replicate (CDK12–cyclin K and DDB1; compound concentration 36 nM) | TR-FRET signal, individual replicate (CDK12–cyclin K and DDB1; [3]) | TR-FRET signal, individual replicate (CDK12–cyclin K and DDB1; [4]) | TR-FRET signal, individual replicate (CDK12–cyclin K and DDB1; [5]) | TR-FRET signal, individual replicate (CDK12–cyclin K and DDB1; [6]) | TR-FRET signal, individual replicate (CDK12–cyclin K and DDB1; [7]) | TR-FRET signal, individual replicate (CDK12–cyclin K and DDB1; compound concentration 2448 nM) | TR-FRET signal, individual replicate (CDK12–cyclin K and DDB1; [8]) | TR-FRET signal, individual replicate (CDK12–cyclin K and DDB1; [9]) | DC50 [1, 10] [µM] | EC50 (CDK12–cyclin K and DDB1; [11]) [µM] | EC50 (HEK293T cells; [2]) [µM] | Toxicity rescue (HEK293T cells; Supplementary Table 2) [%] | also measured
CCCCN(CCCC)CCCNc1nc(N[C@H](CC)CO)nc2c1ncn2C(C)C [DS36] | 0.2097 and 0.2275 | 0.2087 and 0.2297 | 0.2089 and 0.2353 | 0.2163 and 0.2368 | 0.2165 and 0.2428 | 0.2214 and 0.244 | 0.2373 and 0.2728 | 0.2487 and 0.3013 | 0.2879 and 0.3168 | 0.3262 and 0.358 | 0.3249 and 0.3501 | > 10 |  | > 10 | 0 | 
CC[C@H](CO)Nc1nc(NCCC2CC2)c2ncn(C(C)C)c2n1 [DS37] | 0.1908 and 0.2636 | 0.201 and 0.2304 | 0.2177 and 0.2395 | 0.2212 and 0.2472 | 0.2411 and 0.2679 | 0.2728 and 0.306 | 0.3075 and 0.349 | 0.3712 and 0.4097 | 0.4307 and 0.4643 | 0.5169 and 0.5543 | 0.5088 and 0.5368 | > 10 |  | > 10 | 0 | 

Source: article PMC10746543, “Design principles for cyclin K molecular glue degraders” (Nature Chemical Biology, 2023)
